Reference: patent EP1311531B1, “STEROID DERIVED ANTIBIOTICS” (Brigham Young University, priority 2000, dated 2002)
Values after ≈ are worked out from the molar mass of the structure shown. Like-named read-outs stand apart in the source and are kept apart here.

How the values were obtained:
[1] = system: Escherichia coli ATCC 25922; conditions: ATCC25922
Method: (§4) FICs can be performed by checkerboard titrations of compounds in one dimension of a microtiter plate, and of antibiotics in the other dimension, for example. The FIC is calculated by looking at the impact of one antibiotic on the MIC of the other and vice versa. […] As used herein, FIC can be determined as follows: FIC = (MIC(compound in combination))/(MIC(compound alone)) + (MIC(antibiotic in combination))/(MIC(antibiotic alone)) [formula]
(§5) Concentrations of 0.5, 1.0 or 3.0 µg/mL of these antibiotics were used, and the concentrations of the cholic acid derivatives required to inhibit bacterial growth of Gram-negative strains were determined.

[2] = system: Escherichia coli ATCC 25922; assay: Sensitization to erythromycin, novobiocin or rifampicin (permeabilization, FIC); conditions: for MBC: Escherichia coli, ATCC25922; for concentration required to lower the MIC of erythromycin from 60 µg/mL to 1 µg/mL: Table 5, E. coli (ATCC 25922), with erythromycin; for FIC / concentration required for bacterial growth inhibition: Table 13, with rifampicin (order of b151), Escherichia coli ATCC 25922
Method: as §4, §5

[3] = system: E. coli (ATCC 10798); assay: Sensitization to erythromycin or novobiocin (outer membrane permeabilization, FIC); assay type: cell-based, Escherichia coli; conditions: for MBC: Escherichia coli; for MBC / concentration required to lower the MIC of erythromycin from 70 µg/mL to 1 µg/mL: E. coli (ATCC 10798); for concentration required to lower the MIC of erythromycin from 70 µg/mL to 1 µg/mL: Table 2
Method: FICs can be performed by checkerboard titrations of compounds in one dimension of a microtiter plate, and of antibiotics in the other dimension, for example. The FIC is calculated by looking at the impact of one antibiotic on the MIC of the other and vice versa. […] Preferably, an FIC of less than 0.5 is obtained for synergism. As used herein, FIC can be determined as follows: FIC = (MIC(compound in combination))/(MIC(compound alone)) + (MIC(antibiotic in combination))/(MIC(antibiotic alone)) [formula]
Aliquots of 1 mL of the suspension were added to test tubes containing 1 mL TSB and incrementally varied concentrations of cholic acid derivatives and/or erythromycin or novobiocin. In the sensitization experiments, erythromycin or novobiocin were added 15 minutes later than the cholic acid derivatives. The samples were subjected to stationary incubation at 37°C for 24 hours. Sample turbidity was determined by measuring absorption at 760 nm (HP 8453 UV-Visible Chemstation, Hewlett Packard). Additionally, an alliquot from each of the samples showing no measurable turbidity was subcultured on TSA plates (alliquots were diluted to provide fewer than 300 CFU). Colonies that grew on the subculture after overnight incubation were counted and the number of CFU/mL in the samples were calculated. The calculated values were compared to the number of CFU/mL in the original inoculum.
They were also tested for the ability to permeabilize the outer membrane of Gram-negative bacteria, causing sensitization to hydrophobic antibiotics that cannot cross the outer membrane. The permeabilization of the outer membrane was measured using erythromycin and novobiocin.

[4] = Minimum hemolytic concentration (MHC); assay type: cell-based; conditions: Table 10
Method: Minimum inhibition concentrations (MIC) and minimum hemolytic concentrations (MHC) were measured as described in Li et al., Antimicrob. Agents. Chemother., 1999, 43, 1347. […]

[5] = system: Enterococcus faeculis ATCC 29212; assay: MIC and MBC measurement; assay type: cell-based, Enterococcus faecalis; conditions: ATCC29212
Method: (§1) General: Microorganisms. Reference strains were purchased from the American Type Culture Collection (Rockville, MD) or Bactrol disks from Difeo Laboratories (Detroit, MI). […] Bacterial strains were maintained on Mueller-Hinton agar plates, and Candida albicans was maintained on Sabouraud Dextrose agar plates.
(§2) Aliquots (20 mL) of the homogeneous solution were then poured in sterile plastic petri dishes (100 x 15 mm, Fisher Scientific). Solutions of compounds were made by dissolving the HCl salt of the respective compound into an appropriate amount of deionized and sterilized water followed by microfiltration.
(§3) Aliquots of 1 mL of the suspension were added to test tubes containing 1 mL TSB and incrementally varied concentrations of cholic acid derivatives and/or erythromycin or novobiocin. […] Additionally, an alliquot from each of the samples showing no measurable turbidity was subcultured on TSA plates (alliquots were diluted to provide fewer than 300 CFU). Colonies that grew on the subculture after overnight incubation were counted and the number of CFU/mL in the samples were calculated. The calculated values were compared to the number of CFU/mL in the original inoculum.

[6] = system: E. coli (ATCC 10798); assay: MIC and MBC measurement; assay type: cell-based, Escherichia coli
Method: as §1, §2, §3

[7] = system: Pseudomonas aeruginosa ATCC 27853; assay: MIC and MBC measurement; assay type: cell-based
Method: as §1, §2, §3

[8] = system: Streptococcus pyogenes ATCC 19615; assay: MIC and MBC measurement; assay type: cell-based; conditions: ATCC19615, Table 10
Method: as §1, §2, §3

[9] = system: Klebsiella pneumonia ATCC 13883; assay: MIC and MBC measurement; assay type: cell-based; conditions: Klebsiella pneumoniae, ATCC13883
Method: as §1, §2, §3

[10] = system: Salmonella typhimurium ATCC 14028; assay: MIC and MBC measurement; assay type: cell-based; conditions: Salmonella enterica
Method: as §1, §2, §3

[11] = system: Candida albicans ATCC 90028; assay: MIC and MBC measurement; assay type: cell-based; conditions: ATCC90028, Table 10
Method: as §1, §2, §3

[12] = system: Klebsiella pneumonia ATCC 13883; assay: Sensitization to erythromycin, novobiocin or rifampicin (permeabilization, FIC); assay type: cell-based, Klebsiella pneumoniae
[13] = ATCC10798, Table 2, with erythromycin
[14] = ATCC10798, Table 3, with novobiocin
[15] = Escherichia coli, ATCC10798, Table 1, E. coli (ATCC 10798), read-out: MBC
[16] = Escherichia coli, ATCC10798, Table 1, E. coli (ATCC 10798), read-out: MIC
[17] = ATCC27853, Table 6, P. aureginosa (ATCC 27853)
[18] = ATCC27853, Table 10, Pseudomonas aeruginosa ATCC 27853
[19] = Table 12, with novobiocin (order of b151), Klebsiella pneumonia ATCC 13883
[20] = Table 13, with rifampicin (order of b151), Klebsiella pneumonia ATCC 13883
[21] = Table 9, Escherichia coli (ATCC 10798)

Row | Compound | MBC [3, 13] | concentration required to lower the MIC of erythromycin from 70 µg/mL to 1 µg/mL ([3]; with erythromycin) | MHC [4] | MBC [5] | MIC [5] | MBC [6, 15] | MIC [6, 16] | MIC [7, 17] | MBC [7, 18] | MIC [7, 18] | MBC [8] | MIC [8] | MBC [9] | MIC [9] | MBC [10] | MIC [10] | MBC [11] | MIC [11] | FIC ([12]; ATCC13883) | concentration required for bacterial growth inhibition ([12]; ATCC13883) | also measured
1 | C[C@H](CCCN(C)Cc1ccccc1)[C@H]1CC[C@H]2[C@@H]3[C@H](OCCN)C[C@@H]4C[C@H](OCCN)CC[C@]4(C)[C@H]3C[C@H](OCCN)[C@]12C [Compound 1] | 20 µg/mL | 2 µg/mL | 78 µg/mL | 50 µg/mL (≈ 79.7 µM) | 4.9 µg/mL (≈ 7.82 µM) | 34 µg/mL (≈ 54.2 µM) | 20 µg/mL (≈ 31.9 µM) | 15 µg/mL (≈ 23.9 µM) | 38 µg/mL (≈ 60.6 µM) | 26 µg/mL (≈ 41.5 µM) | 4.4 µg/mL (≈ 7.02 µM) | 3 µg/mL (≈ 4.78 µM) | > 36 µg/mL | 24 µg/mL (≈ 38.3 µM) | > 25 µg/mL | 21 µg/mL (≈ 33.5 µM) | > 50 µg/mL | 49 µg/mL (≈ 78.2 µM) | 0.072 | 1.0 µg/mL | concentration required for bacterial growth inhibition [1]: 0.35 µg/mL; MBC [2]: 14 µg/mL; concentration required to lower the MIC of erythromycin from 60 µg/mL to 1 µg/mL [2]: 2 µg/mL; FIC [2]: 0.099; concentration required for bacterial growth inhibition [2]: 0.74 µg/mL; MBC [3, 14]: 34 µg/mL; MBC [7, 17]: > 50 µg/mL; concentration required for bacterial growth inhibition [12, 19]: 4.7 µg/mL; FIC [12, 20]: 0.043; concentration required for bacterial growth inhibition [12, 20]: 0.40 µg/mL
2 | C[C@H](CCCN(C)Cc1ccccc1)[C@H]1CC[C@H]2[C@@H]3[C@H](OCCCN)C[C@@H]4C[C@H](OCCCN)CC[C@]4(C)[C@H]3C[C@H](OCCCN)[C@]12C [Compound 2] | 10 µg/mL | 1 µg/mL | 58 µg/mL | 19 µg/mL (≈ 28.4 µM) | 3.4 µg/mL (≈ 5.08 µM) | 16 µg/mL (≈ 23.9 µM) | 7 µg/mL (≈ 10.5 µM) | 9 µg/mL (≈ 13.5 µM) | > 17 µg/mL | 11 µg/mL (≈ 16.4 µM) | 2.3 µg/mL (≈ 3.44 µM) | 2 µg/mL (≈ 2.99 µM) | 17 µg/mL (≈ 25.4 µM) | 14 µg/mL (≈ 20.9 µM) | 16 µg/mL (≈ 23.9 µM) | 13 µg/mL (≈ 19.4 µM) | 42 µg/mL (≈ 62.8 µM) | 30 µg/mL (≈ 44.8 µM) | 0.048 | 0.25 µg/mL | concentration required for bacterial growth inhibition [1]: 0.33 µg/mL; MBC [2]: 5 µg/mL; concentration required to lower the MIC of erythromycin from 60 µg/mL to 1 µg/mL [2]: 1 µg/mL; FIC [2]: 0.22; concentration required for bacterial growth inhibition [2]: 0.80 µg/mL; MBC [3, 14]: 16 µg/mL; MBC [7, 17]: 40 µg/mL (≈ 59.8 µM); concentration required for bacterial growth inhibition [12, 19]: 0.49 µg/mL; FIC [12, 20]: 0.035; concentration required for bacterial growth inhibition [12, 20]: 0.12 µg/mL
3 | C[C@H](CCCN(C)Cc1ccccc1)[C@H]1CC[C@H]2[C@@H]3[C@H](OCCCNC(=N)N)C[C@@H]4C[C@H](OCCCNC(=N)N)CC[C@]4(C)[C@H]3C[C@H](OCCCNC(=N)N)[C@]12C [Compound 5] | 3 µg/mL | 1 µg/mL | 26 µg/mL | 16 µg/mL (≈ 20.1 µM) | 2.2 µg/mL (≈ 2.77 µM) | 4 µg/mL (≈ 5.03 µM) | 2 µg/mL (≈ 2.52 µM) | 6 µg/mL (≈ 7.55 µM) | 9.9 µg/mL (≈ 12.5 µM) | 5.9 µg/mL (≈ 7.42 µM) | 2.1 µg/mL (≈ 2.64 µM) | 2 µg/mL (≈ 2.52 µM) | 6.7 µg/mL (≈ 8.43 µM) | 3 µg/mL (≈ 3.77 µM) | 3.8 µg/mL (≈ 4.78 µM) | 2.2 µg/mL (≈ 2.77 µM) | 50 µg/mL (≈ 62.9 µM) | 11 µg/mL (≈ 13.8 µM) | 0.080 | 0.15 µg/mL | FIC [1]: 0.31; MBC [2]: 1.5 µg/mL; concentration required to lower the MIC of erythromycin from 60 µg/mL to 1 µg/mL [2]: 1.5 µg/mL; MBC [3, 14]: 4 µg/mL; MBC [7, 17]: 15 µg/mL (≈ 18.9 µM)
4 | C[C@H](CCCO)[C@H]1CC[C@H]2[C@@H]3[C@H](OCCCN)C[C@@H]4C[C@H](OCCCN)CC[C@]4(C)[C@H]3C[C@H](OCCCN)[C@]12C [Compound 10] | 50 µg/mL | 2 µg/mL | 100 µg/mL | 19 µg/mL (≈ 33.6 µM) | 3.3 µg/mL (≈ 5.83 µM) | 60 µg/mL (≈ 106 µM) | 36 µg/mL (≈ 63.6 µM) | 23 µg/mL (≈ 40.6 µM) | 36 µg/mL (≈ 63.6 µM) | 21 µg/mL (≈ 37.1 µM) | 5.8 µg/mL (≈ 10.2 µM) | 4.2 µg/mL (≈ 7.42 µM) | 50 µg/mL (≈ 88.4 µM) | 47 µg/mL (≈ 83.1 µM) | > 17 µg/mL | 43 µg/mL (≈ 76 µM) | 29 µg/mL (≈ 51.2 µM) | 14 µg/mL (≈ 24.7 µM) | 0.035 | 0.21 µg/mL | concentration required for bacterial growth inhibition [1]: 0.30 µg/mL; FIC [2]: 0.085; concentration required for bacterial growth inhibition [2]: 0.70 µg/mL; (a) Concentration required to lower the MIC of erythromycin from 70 to 1 µg/mL [3, 21]: 2.0 µg/mL; (b) MBC with 1 µg/mL erythromycin [3, 21]: 50 µg/mL; (d) Concentration required to lower the MIC of novobiocin from >500 to 1 µg/mL [3, 21]: 4.0 µg/mL; FIC^c (FIC values with erythromycin) [3, 21]: 0.070; FIC^c (FIC values with novobiocin) [3, 21]: 0.11; MBC [6, 21]: 60 µg/mL (≈ 106 µM); MIC [6, 21]: 36 µg/mL (≈ 63.6 µM); concentration required for bacterial growth inhibition [12, 19]: 0.73 µg/mL; FIC [12, 20]: 0.030; concentration required for bacterial growth inhibition [12, 20]: 0.16 µg/mL
